Tested on: human subjects
Test: Human sensory testing (gLMS) of API bitterness with blocker, as pre-rinse or admixture
Type: in vivo
Source text: Methods of evaluating the sensory properties of the API and admixtures with the blocker compounds of Formula A are adopted from Breslin PA, and Tharp CD, “Reduction of saltiness and bitterness after a chlorhexidine rinse,” Chem Senses. 2001 February; 26(2):105-16. More details are illustrated below.
Subjects participate in the study after providing informed consent. Gender of the subjects is balanced between male and female. The subjects are adults with ages ranging from 20 years old to 50 years old. […] The participants are asked to refrain from eating, drinking, or chewing gum for 1 hr prior to testing. Subjects are trained to use the General Labeled Magnitude Scale (gLMS) following standard published procedures. See. e.g., Breslin P A, and Tharp C D. “Reduction of saltiness and bitterness after a chlorhexidine rinse,” Chem Senses. 2001 February; 26(2): 105-16; Keast and Breslin, “Bitterness suppression with zinc sulfate and Na-cyclamate: a model of combined peripheral and central neural approaches to flavor modification.” Pharm Res. 2005 November; 22(11):1970-7. Epub 2005 Aug. 26; Green et al, “Evaluating the ‘Labeled Magnitude Scale’ for measuring sensations of taste and smell.” Chem Senses. 1996 June; 21(3):323-34; Barry G. Green, et al, “Derivation and evaluation of a semantic scale of oral sensation magnitude with apparent ratio properties,” Chemical Senses, Volume 18, Issue 6, 1 Dec. 1993, Pages 683-702; and Bartoshuk L M, “Comparing sensory experiences across individuals: recent psychophysical advances illuminate genetic variation in taste perception.” Chem Senses. 2000 August; 25(4):447-60.
The selected API (in racemic or L form as applicable) is diluted/dissolved in deionized (di) filtered water upon use into various concentrations. […] The API is prepared and dissolved in deionized filtered water or in […] 6-methylflavone to a final concentration. All solutions are stored on ice or at 4° C. to 8° C. and brought up to room temperature prior to testing.
The following testing protocol is performed. The tested solutions are provided to the subjects in random order. Subjects rinsed with di water at least four times over a 2-minute period prior to tasting each solution. The subjects are instructed to wear nose clips to eliminate olfactory input, pour the whole solution in their mouth for 3-5 seconds, and rate the perceived sensation (including bitterness, sourness, astringency, burning, stinging and nausea) intensity of the solution while it remained in the mouth, prior to expectorating. Taste intensity is recorded on a computerized gLMS, analyzed and plotted.

Cc1ccc2oc(-c3ccccc3)cc(=O)c2c1 [6-methylflavone]
Blocking the bitter taste of piperaquine and TAF (admixture, subset of human subjects): effective antagonist
Suppression of TAF bitterness (another subject, FIGS. 11A/11B, 0.5 mg/mL TAF, pre-rinse then admixture, blocker 100 μM): worked
Suppression of TAF bitterness (another subject, FIGS. 11A/11B, 0.5 mg/mL TAF, pre-rinse then admixture, blocker 1 mM): worked even better
Suppression of TAF bitterness (one subject, FIGS. 8A/8B, 0.5 mg/mL TAF with and without 100 μM blocker): significant suppression
Suppression of TAF bitterness (one subject, FIGS. 9A/9B, 0.5 mg/mL TAF alone vs pre-rinse vs pre-rinse containing 100 μM blocker): did not show significant suppression
Suppression of TAF bitterness (one subject, FIGS. 10A/10B, 0.5 mg/mL TAF, pre-rinse then admixture, blocker 100 μM): no bitterness suppression
Average perceived bitterness intensity of piperaquine (piperaquine 8 mg/mL treated with 100 μM blocker, FIG. 6): affected
Blocking effect for TAF and piperaquine with added pre-rinse (pre-rinse with the blocker added, compared with admixture alone): stronger

Reference: US20260248918A1, “COMPOSITIONS AND METHODS OF SUPPRESSING AVERSIVENESS OF PHARMACEUTICALS AND INGESTIBLE MATERIALS” (Monell Chemical Senses Center, priority 2019, published 2026)
